± gives the expanded uncertainty stated by the source.
Settings: Liquid; for viscosity: Capillary tube (Ostwald / Ubbelohde) method; for mass density: Vibrating tube method

Question: Which viscosity (313.15 K, 5700 kPa) does the source give for `CC(C)CCCC(C)CCCC(C)CCCCC(C)CCCC(C)CCCC(C)C` (stereo not given) [2,6,10,15,19,23-hexamethyltetracosane] here?
Answer: 16.52 ± 0.38 mPa·s

Question: And the mass density (313.15 K, 5700 kPa)?
Answer: 798.1 ± 2.4 kg/m3

Question: What about the viscosity (313.15 K, 13500 kPa) of the same compound?
Answer: 19.37 ± 0.44 mPa·s

Question: And the mass density (313.15 K, 13500 kPa)?
Answer: 804.3 ± 2.4 kg/m3

Question: What about the viscosity (313.15 K, 23500 kPa) of the same compound?
Answer: 23.38 ± 0.53 mPa·s

Question: And the mass density (313.15 K, 23500 kPa)?
Answer: 811.4 ± 2.5 kg/m3

Question: And the viscosity (313.15 K, 45700 kPa)?
Answer: 35.26 ± 0.82 mPa·s

Question: And the mass density (313.15 K, 45700 kPa)?
Answer: 822.6 ± 2.5 kg/m3

Question: What about the viscosity (313.15 K, 68000 kPa) of the same compound?
Answer: 52.85 ± 1.2 mPa·s

Question: What about the mass density (313.15 K, 68000 kPa) of the same compound?
Answer: 832.5 ± 2.6 kg/m3

Question: What about the viscosity (338.15 K, 7900 kPa) of the same compound?
Answer: 7.82 ± 0.18 mPa·s

Question: And the mass density (338.15 K, 7900 kPa)?
Answer: 783.2 ± 2.4 kg/m3

Question: And the viscosity (338.15 K, 11000 kPa)?
Answer: 8.05 ± 0.21 mPa·s

Question: And the mass density (338.15 K, 11000 kPa)?
Answer: 785.2 ± 2.4 kg/m3

Question: What about the viscosity (338.15 K, 22500 kPa) of the same compound?
Answer: 10.19 ± 0.26 mPa·s

Question: And the mass density (338.15 K, 22500 kPa)?
Answer: 793.3 ± 2.4 kg/m3

Question: And the viscosity (338.15 K, 45600 kPa)?
Answer: 14.4 ± 0.37 mPa·s

Question: And the mass density (338.15 K, 45600 kPa)?
Answer: 807.5 ± 2.5 kg/m3

Question: What about the viscosity (338.15 K, 60500 kPa) of the same compound?
Answer: 18.07 ± 0.41 mPa·s

Question: What about the mass density (338.15 K, 60500 kPa) of the same compound?
Answer: 814.6 ± 2.5 kg/m3

Question: What about the viscosity (338.15 K, 76300 kPa) of the same compound?
Answer: 22.98 ± 0.71 mPa·s

Question: What about the mass density (338.15 K, 76300 kPa) of the same compound?
Answer: 820.5 ± 2.6 kg/m3

Question: What about the viscosity (363.15 K, 10600 kPa) of the same compound?
Answer: 4.5 ± 0.11 mPa·s

Question: And the mass density (363.15 K, 10600 kPa)?
Answer: 769.9 ± 2.3 kg/m3

Question: And the viscosity (363.15 K, 21500 kPa)?
Answer: 5.38 ± 0.14 mPa·s

Question: What about the mass density (363.15 K, 21500 kPa) of the same compound?
Answer: 777.9 ± 2.4 kg/m3

Question: And the viscosity (363.15 K, 42500 kPa)?
Answer: 7.21 ± 0.19 mPa·s

Question: What about the mass density (363.15 K, 42500 kPa) of the same compound?
Answer: 791.1 ± 2.4 kg/m3

Question: What about the viscosity (363.15 K, 63700 kPa) of the same compound?
Answer: 9.47 ± 0.25 mPa·s

Question: What about the mass density (363.15 K, 63700 kPa) of the same compound?
Answer: 802.4 ± 2.5 kg/m3

From the NIST ThermoML archive (doi:10.1021/acs.jced.8b00786)
